We go through 5 compounds from patent US20260256814A1, “COMBINATION FOR THE TREATMENT OF INFECTIONS CAUSED BY MYCOPLASMA GENITALIUM” (GLAXOSMITHKLINE INTELLECTUAL PROPERTY DEVELOPMENT LIMITED, priority 2019, published 2026).

Values after ≈ are worked out from the molar mass of the structure shown. Read-outs that look alike come from different tables or passages of the source.

The subject of experiment [1] is Mycoplasma genitalium. In words: Determination of minimum inhibitory concentration (MIC) by the Vero-cell culture method, growth by qPCR. Type of experiment: cell-based. The procedure: A collection of 54 Mycoplasma genitalium isolates originating from 51 patients were tested. Thirty-one strains were macrolide-resistant, with azithromycin MICs of ≥16 μg/mL and mutations in 23S rRNA gene positions A2058 (n=17) or A2059 (n=14, E. coli numbering). Eighteen strains were moxifloxacin-resistant (MIC≥1 μg/ml); 17 had dual resistance and were resistant to both moxifloxacin and azithromycin.
Gepotidacin minimal inhibitory concentrations (MICs) were determined by the Vero-cell culture method for all 54 isolates and minimal bactericidal concentrations (MBCs) against 44 Mycoplasma genitalium strains. Gepotidacin, azithromycin, doxycycline, and moxifloxacin MICs were determined by inoculating 5000 genome equivalents (geq) as determined by quantitative PCR (qPCR) into a Vero-cell culture containing two-fold dilutions of test-antibiotic (Hamasuna et al., Antimicrob. Agents Chemother 49, 4993-4998 (2005)). After a three-week incubation period, cells and supernatant were harvested and growth of Mycoplasma genitalium was determined by qPCR. MIC was defined as the minimal concentration of the test-antibiotic causing a 99% inhibition of growth when compared to the mean of the control cultures grown without antibiotic.

In experiment [2] the test system is Mycoplasma genitalium. In words: Determination of minimum bactericidal concentration (MBC), Vero-cell culture, qPCR. Type of experiment: cell-based. The settings on record: Mycoplasmoides genitalium, read-out: median MBC. The procedure:
After incubation for MIC determination, 15 μl of culture medium was transferred from the MIC plate to 135 μl fresh Vero-cell suspension, resulting in a 10-fold dilution of gepotidacin. Plates were sealed and incubated for four weeks and Mycoplasma genitalium growth was subsequently determined by qPCR. MBC was defined as the minimal concentration of the test-antibiotic causing a 99% inhibition of growth when compared to the mean of the control culture wells grown without antibiotic.

Experiment [3] deals with Mycoplasma genitalium. The settings on record: alternative treatment of Mycoplasma genitalium infection; cited from earlier work.
The mark [4] stands for this setting: Mycoplasmoides genitalium, all 54 isolates (36 moxifloxacin-susceptible and 18 moxifloxacin-resistant), Vero-cell culture, 99% inhibition of growth, read-out: MIC50.
[5] abbreviates: Mycoplasmoides genitalium, all 54 isolates, Vero-cell culture, read-out: MIC90.
[6] abbreviates: all 54 isolates, Vero-cell culture.
[7] abbreviates: 18 moxifloxacin-resistant isolates.
[8] abbreviates: 36 moxifloxacin-susceptible isolates.

For the compound `CC[C@H]1OC(=O)[C@H](C)[C@@H](O[C@H]2C[C@@](C)(OC)[C@@H](O)[C@H](C)O2)[C@H](C)[C@@H](O[C@@H]2O[C@H](C)C[C@H](N(C)C)[C@H]2O)[C@](C)(O)C[C@@H](C)CN(C)[C@H](C)[C@@H](O)[C@]1(C)O` [Azithromycin, reference compound], in the experiment on Mycoplasma genitalium [1] (Mycoplasmoides genitalium, read-out: MICs, 31 macrolide-resistant strains (23S rRNA A2058 or A2059 mutations)), the MIC was at least 16 µg/mL. Also, the MIC50 with Mycoplasma genitalium [1] (setting [4]) is 16 µg/mL (≈ 21.4 µM). The MIC90 in the experiment on Mycoplasma genitalium [1] (setting [5]) and in the experiment with Mycoplasma genitalium [1] (setting [6]) was over 64 µg/mL in each case.

In the case of `C[C@H]1c2cccc(O)c2C(=O)C2=C(O)[C@]3(O)C(=O)C(C(N)=O)=C(O)[C@@H](N(C)C)[C@@H]3[C@@H](O)[C@@H]21` [Doxycycline, reference compound], the MIC50 with Mycoplasma genitalium [1] (setting [4]) stood at 0.5 µg/mL (≈ 1.13 µM). Moreover, the MIC90 in the experiment on Mycoplasma genitalium [1] (setting [5]) turned out to be 1 µg/mL (≈ 2.25 µM). This compound also registered an MIC range in the experiment on Mycoplasma genitalium [1] (setting [6]) of 0.06 to 2 µg/mL.

For the compound `O=c1ccc2ncc(=O)n3c2n1C[C@H]3CN1CCC(NCc2cc3c(cn2)OCCC3)CC1` [Gepotidacin, (2R)-2-({4-[(3,4-dihydro-2/pyrano[2,3-c]pyridin-6-ylmethyl)amino]-1-piperidinyl}methyl)-1,2-dihydro-3H,8/2a,5,8a-triazaacenaphthylene-3,8-dione], the MIC90 in the experiment on Mycoplasma genitalium [1] (setting [7]), against Mycoplasma genitalium [1] (setting [8]), against Mycoplasma genitalium [1] (Mycoplasmoides genitalium) and in the experiment with Mycoplasma genitalium [1] (setting [6]) was 0.25 µg/mL (≈ 0.557 µM) in each case. The MIC range with Mycoplasma genitalium [1] (setting [7]) is at most 0.016 to 0.5 µg/mL; against Mycoplasma genitalium [1] (setting [8]), 0.032 to 0.5 µg/mL; in the experiment with Mycoplasma genitalium [1] (all 54 isolates) it was at most 0.016 to 0.5 µg/mL; with Mycoplasma genitalium [1] (setting [6]) it was at most 0.016 to 0.5 µg/mL. Moreover, the “median MIC” value in the experiment with Mycoplasma genitalium [1] (44 isolates for which MBCs were available) was found to be 0.064 µg/mL. For the same compound, the “difference in MIC between fluoroquinolone-, dual-resistant and -susceptible isolates” value in the experiment on Mycoplasma genitalium [1] (54 isolates, p=0.2) is listed as “no difference”. In addition, the “difference in MIC between macrolide-resistant and -susceptible isolates” value in the experiment on Mycoplasma genitalium [1] (54 isolates, p=0.24) is on record as “no difference”. Moreover, the MIC50 with Mycoplasma genitalium [1] (Mycoplasmoides genitalium, 18 moxifloxacin-resistant isolates) was 0.064 µg/mL (≈ 0.143 µM); against Mycoplasma genitalium [1] (Mycoplasmoides genitalium, 36 moxifloxacin-susceptible isolates), 0.125 µg/mL (≈ 0.279 µM); against Mycoplasma genitalium [1] (Mycoplasmoides genitalium, all 54 isolates (36 moxifloxacin-susceptible and 18 moxifloxacin-resistant), Vero-cell culture, 99% inhibition of growth) it was 0.125 µg/mL (≈ 0.279 µM). For the same compound, the MIC worked out at 0.064 µg/mL (≈ 0.143 µM) with Mycoplasma genitalium [1] (Mycoplasmoides genitalium, read-out: median MIC, 44 isolates for which MBCs were available); 0.125 µg/mL (≈ 0.279 µM) in the experiment with Mycoplasma genitalium [1] (Mycoplasmoides genitalium, read-out: median MIC, all 54 isolates); 0.125 µg/mL (≈ 0.279 µM) in the experiment on Mycoplasma genitalium [1] (Mycoplasmoides genitalium, read-out: modal MIC, all 54 isolates). Besides, the “cross-resistance to the tested comparators” value in the experiment with Mycoplasma genitalium [1] (all isolates incl. fluoroquinolone- and macrolide-resistant) was “no cross-resistance”. For the same compound, the MBC with Mycoplasma genitalium [2] came to 0.125 µg/mL (≈ 0.279 µM).

In the experiment with Mycoplasma genitalium [1] (Mycoplasmoides genitalium), `COc1c(N2C[C@@H]3CCCN[C@@H]3C2)c(F)cc2c(=O)c(C(=O)O)cn(C3CC3)c12` [Moxifloxacin, reference compound] returned an MIC of at least 1 µg/mL, an MIC50 of 0.25 µg/mL (≈ 0.623 µM) and an MIC90 of 4 µg/mL (≈ 9.96 µM). The MIC90 in the experiment with Mycoplasma genitalium [1] (setting [6]) is 4 µg/mL (≈ 9.96 µM).

pristinamycin: the effective in the experiment with Mycoplasma genitalium [3] is reported as 80%.
